Experimental data taken from PMC12163635, “Synthetic Retinoids for the Modulation of Genomic and Nongenomic Processes in Neurodegenerative Diseases” (ACS Omega, 2025).

Experiments:
[1] = target: T1, RARα (Homo sapiens, UniProt P10276); assay: Fluorescence competition binding assay (displacement of DC271); details: for Kd / Binding KD (± SD) RARα: 100 nM RAR and DC271 on plate; for Kd: read-out: Binding KD (± SD) RARα; for ΔGEXP RARα: experimental binding free energy from K D, ΔGexp=−RT ln K, 298.1 K
T1 construct: His6-3C-NusA (cleaved yes); made in house; host or cells: E. coli BL21(DE3), pET50b vector
T1 sequence (P10276 183-417 limits assumed): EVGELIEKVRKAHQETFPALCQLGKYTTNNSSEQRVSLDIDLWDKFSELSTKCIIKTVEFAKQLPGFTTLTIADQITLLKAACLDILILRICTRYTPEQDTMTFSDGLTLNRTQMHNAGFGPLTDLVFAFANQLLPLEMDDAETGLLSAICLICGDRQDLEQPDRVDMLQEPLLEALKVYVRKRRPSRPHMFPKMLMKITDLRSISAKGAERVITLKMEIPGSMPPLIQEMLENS
Description: (§1) Fluorescence competition assays were employed to determine the relative binding affinities of each synthetic retinoid toward the LBD of the RARs. The assay is based on the potential for competitive displacement of the inherently fluorescent retinoid DC271 from the LBP by a test nonfluorescent synthetic retinoid. Changes in the fluorescence were measured following the addition of a serial dilution of the test compound and the results were plotted to generate a binding curve. […] Assays were performed for both RARα and RARγ. […] Nonlinear least-squares regression analyses were performed to calculate binding affinities and reported as binding K D, the equilibrium dissociation constant between the RAR isoform and the test synthetic retinoid.
(§2) RARα/γ proteins were expressed in BL21(DE3) cells (NEB) transformed into pET50b (Novagen) and pOPINS3C vectors, respectively, carrying the gene construct and containing a His6-3C-NusA tag or His6-3C-SUMO tag used for solubility. Transformations were carried out under standard conditions using Quick Transformation Protocol (New England Biolabs). Successful transformants were grown overnight in 2xYT media (Melford) and frozen for storage at −80 °C in 50% glycerol. Expression cultures were inoculated from glycerol stocks into 25 mL of 2xYT media (Melford) with 50 μg/mL kanamycin or 100 μg/mL ampicillin (Sigma-Aldrich) and grown overnight with shaking (37 °C, 150 rpm). The overnight cultures were transferred into 1 L expression flasks (2xYT/ampicillin 100 μg/mL or 2xYT/kanamycin 50 μg/mL) and grown with shaking at 37 °C, 150 rpm. Induction was carried out at an OD600 of 0.6–0.8, with 1 mL of 1 M IPTG (1 mM in culture), before shaking overnight (20 h) at 18 °C. The resulting cultures were spun down into pellets using an Avanti Hi-Speed centrifuge (JLA 8.1000, 4000 rpm, 30 min, 4 °C), before the supernatant was removed and the bacterial pellet were frozen at −80 °C.
(§3) RARα/γ (pET50b or pOPINS3C, BL21(DE3) (NEB)) were resuspended from pellet with 20 mL Wash Buffer (20 mM Tris-HCl, 300 mM NaCl and 20 mM imidazole, pH 8) and the resulting suspension was sonicated on ice (40% power, 2 min, repeated twice with 1 min rest in-between) before centrifuging (Avanti Hi-Speed JA25.50, 20,000 rpm, 1 h, 4 °C). Supernatants were clarified using 0.45 μm syringe filters (Thermo Fisher Scientific). Affinity chromatography and size-exclusion (SEC) chromatography were carried out on AKTA Pure25 (Cytiva). Supernatants were loaded onto the HisTrap HP column (5 mL, Cytiva) and washed using 25 mL of wash Buffer. The column was washed with Wash Buffer until UV trace returned to baseline, before RARα/γ was eluted using a gradient of Elution Buffer (20 mM Tris-HCl, 300 mM NaCl, 500 mM imidazole pH 8). The resulting protein-containing fractions were analyzed by SDS-PAGE (200 V, 30 min) using SurePAGE Bis-Tris 12% precast gels (Genscript). Protein concentrations were estimated using absorbance at 280 nm on a DS-11 spectrophotometer (Denovix) with calculated molecular weights and extinction coefficients (Expasy). RAR proteins were cleaved overnight from 3C-NusA tag or 3C-SUMO-His tag using 1 Unit/100 μg protein of HRV3C protease (Thermo Fisher Scientific) at 4 °C. Solution after digestion was loaded onto a HiLoad 16/600 Superdex 75 prep-grade column (Cytiva) and cleaved RARα/γ was separated from the tag based on molecular weight and eluted from the column using SEC Buffer (20 mM Tris-HCl, 300 mM NaCl and 0.5 mM TCEP, pH 8) into 2 mL fractions. The resulting protein fractions were analyzed by SDS PAGE (200 V, 30 min) using SurePAGE Bis-Tris 12% precast gels (Genscript), before being concentrated to 5 mg/mL using centrifugal concentrators (Sartorius) and frozen at −80 °C in small aliquots for use in binding assays.

[2] = tested on: RARα; assay: as above; design: species or system human; details: log-log plot of K D for RARα and RARγ
RARα, sequence (P10276 182-417): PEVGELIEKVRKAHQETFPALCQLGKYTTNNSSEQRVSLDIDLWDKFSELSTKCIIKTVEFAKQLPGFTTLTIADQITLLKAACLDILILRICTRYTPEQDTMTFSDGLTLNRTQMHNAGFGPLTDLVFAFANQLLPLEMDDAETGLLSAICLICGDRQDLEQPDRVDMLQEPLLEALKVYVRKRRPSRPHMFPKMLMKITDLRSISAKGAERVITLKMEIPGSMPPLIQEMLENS
Description: as §1, §2, §3

[3] = tested on: ERK1/2 phosphorylation in SH-SY5Y cells; assay: ERK1/2 phosphorylation (nongenomic response), AlphaScreen SureFire; assay type: cell-based, human; design: nongenomic response Emax (±95% CI): unit not given here; details: for EC50: Homo sapiens, read-out: nongenomic response EC50 (±95% CI); for nongenomic E max compared with ATRA: nonoverlapping 95% CI
Description: After screening the retinoids for genomic responses, they were tested for their nongenomic ability to rapidly phosphorylate ERK1/2 in the SH-SY5Y cell line. ATRA is known as a potent activator of ERK1/2 − and was used as the standard for comparison. […] The efficacies of the remaining seven retinoids were similar to ATRA.
SH-SY5Y cell line as used in ERK phosphorylation and neurite outgrowth assays described below. The cells were grown in DMEM containing 10% FCS at 37 °C with 5% CO2. The medium was changed three times a week and the cells were passaged at 70% confluence using 0.05% trypsin-EDTA.
To quantify ERK1/2 phosphorylation, SH-SY5Y cells (100,000 cells/well) were plated onto 96-well plates and serum-starved for 24 h in DMEM. Cells were assayed in serum-free DMEM and stimulated for 60 min at 37 °C in a humidified atmosphere. Retinoids were tested at concentrations ranging from 10 to 4 to 10–11 M and at a final concentration of 0.1% DMSO. At the end of the assay, the medium was removed, and cells were lysed with lysis buffer supplied in the AlphaScreen SureFire ERK1/2 kit (PerkinElmer). The assay was performed in 384-well white Proxiplates according to the manufacturer’s instructions and using the beads supplied in the protein A general IgG detection kit (PerkinElmer). Briefly, 4 μL samples were incubated with 7 μL of the freshly prepared mixture containing donor and acceptor beads. Plates were incubated at room temperature and read with the Envision system (PerkinElmer Life Sciences) using AlphaScreen settings.
All data are presented as mean ± SEM of three independent experiments with biological triplicates. Statistical analyses were performed in Microsoft Office Excel 2019 or GraphPad Prism 7.0c version (Prism, GraphPad Software, San Diego, CA). Neurite outgrowth data were analyzed by one-way ANOVA with Newman-Keuls multiple comparison test as appropriate; P value <0.05 was considered statistically significant. *P < 0.05, **P < 0.01. Data for X-Gal and ERK1/2 phosphorylation were analyzed using sigmoidal dose–response analysis of log (agonist) versus response curve (stimulation).

Row | Structure (SMILES) | Kd [1] [nM] | ΔGEXP RARα [1] | binding preference RARα versus RARγ (from K D) [2] | EC50 ([3]; SH-SY5Y cells, 1 h) [nM] | Binding KD (± SD) RARα [1] | nongenomic response Emax (±95% CI) ([3]; SH-SY5Y cells, 1 h) | nongenomic E max compared with ATRA [3] | induction of ERK1/2 phosphorylation (nongenomic activity) ([3]; SH-SY5Y cells, 1 h)
1 | CC1(C)CCC(C)(C)c2cc(C#Cc3ccc(C(=O)O)c(F)c3)ccc21 [Compound 13, 2-Fluoro-4-[2-(5,5,8,8-tetramethyl-5,6,7,8-tetrahydronaphthalen-2-yl)ethynyl]benzoic Acid] | 13.6 | -10.8 kcal/mol | close to the plotted line representing equal binding affinity for RARα and RARγ | 2.44 | – | 43.4 (±1.81) | E max values significantly lower than ATRA | –
2 | CC1(C)CCC(C)(C)c2cc(C#Cc3ccc(C(=O)O)cc3F)ccc21 [Compound 14, 3-Fluoro-4-[2-(5,5,8,8-tetramethyl-5,6,7,8-tetrahydronaphthalen-2-yl)ethynyl]benzoic Acid] | 30.9 | -10.3 kcal/mol | bind RARγ stronger than RARα | 27.4 | – | 50.7 (±2.51) | – | –
3 | CC1(C)CCC(C)(C)c2cc(C#Cc3cc(F)c(C(=O)O)c(F)c3)ccc21 [Compound 15, 2,6-Difluoro-4-[2-(5,5,8,8-tetramethyl-5,6,7,8-tetrahydronaphthalen-2-yl)ethynyl]benzoic Acid] | 0.37 | -13.0 kcal/mol | strongly binds both RARα and RARγ | 125 | – | 76.2 (±5.47) | E max values significantly higher than ATRA | showed activity toward the nongenomic pathway
4 | CC1(C)CCC(C)(C)c2cc(C#Cc3ccc(C(=O)O)cc3Cl)ccc21 [Compound 16, 3-Chloro-4-[2-(5,5,8,8-tetramethyl-5,6,7,8-tetrahydronaphthalen-2-yl)ethynyl]benzoic Acid] | 73.7 | -9.79 kcal/mol | bind RARγ stronger than RARα | 90.8 | – | 36.9 (±2.77) | E max values significantly lower than ATRA | –
5 | Cc1cc2c(cc1C#Cc1ccc(C(=O)O)c(F)c1)C(C)(C)CCC2(C)C [Compound 17, 2-Fluoro-4-[2-(3,5,5,8,8-pentamethyl-5,6,7,8-tetrahydronaphthalen-2-yl)ethynyl]benzoic Acid] | 28.4 | -10.40 kcal/mol | close to the plotted line representing equal binding affinity for RARα and RARγ | 5.73 | – | 44.1 (±2.69) | – | –
6 | Cc1cc2c(cc1C#Cc1ccc(C(=O)O)cc1F)C(C)(C)CCC2(C)C [Compound 18, 3-Fluoro-4-[2-(3,5,5,8,8-pentamethyl-5,6,7,8-tetrahydronaphthalen-2-yl)ethynyl]benzoic Acid] | 18.1 | -10.6 kcal/mol | close to the plotted line representing equal binding affinity for RARα and RARγ | 13.1 | – | 40.1 (±1.86) | E max values significantly lower than ATRA | –
7 | Cc1sc(-c2ccc(C(=O)O)cn2)nc1-c1cnc2c(n1)C(C)(C)CCC2(C)C [Compound 41, 6-[5-Methyl-4-(5,5,8,8-tetramethyl-5,6,7,8-tetrahydroquinoxalin-2-yl)-1,3-thiazol-2-yl]pyridine-3-carboxylic Acid] | – | Non-competitive Binding | – | 15.4 | noncompetitive binding | 55.26 (±0.00) | E max values significantly higher than ATRA | –
8 | Cc1sc(-c2ccc(C(=O)O)cc2)nc1-c1ccc2c(c1)C(C)(C)CCC2(C)C [GZ25, reference compound] | 688 | -7.92 kcal/mol | – | 3.57 | – | 76.6 (±2.61) | E max values significantly higher than ATRA | –

More lines, main results first:

Row | Kd [1] [nM] | ΔGEXP RARα [1] | binding preference RARα versus RARγ (from K D) [2] | EC50 ([3]; SH-SY5Y cells, 1 h) [nM] | Binding KD (± SD) RARα [1] | Structure (SMILES) | nongenomic response Emax (±95% CI) ([3]; SH-SY5Y cells, 1 h) | nongenomic E max compared with ATRA [3] | induction of ERK1/2 phosphorylation (nongenomic activity) ([3]; SH-SY5Y cells, 1 h)
9 | 5.72 | -11.3 kcal/mol | bind RARα preferentially over RARγ | 144 | – | Cc1cc2c(cc1C#Cc1cc(F)c(C(=O)O)c(F)c1)C(C)(C)CCC2(C)C [Compound 19, 2,6-Difluoro-4-[2-(3,5,5,8,8-pentamethyl-5,6,7,8-tetrahydronaphthalen-2-yl)ethynyl]benzoic Acid] | 77.6 (±2.92) | E max values significantly higher than ATRA | –
10 | 927 | -8.23 kcal/mol | – | 20.7 | – | CC1(C)CCC(C)(C)c2cc(C#Cc3cnc(C(=O)O)cn3)ccc21 [Compound 25, 5-[2-(5,5,8,8-Tetramethyl-5,6,7,8-tetrahydronaphthalen-2-yl)ethynyl]pyrazine-2-carboxylic Acid] | 27.9 (±1.66) | E max values significantly lower than ATRA | –
11 | – | Non-competitive Binding | – | 87.4 | noncompetitive binding | COc1cc2c(cc1C#Cc1ncc(C(=O)O)cn1)C(C)(C)CCC2(C)C [Compound 29, 2-[2-(3-Methoxy-5,5,8,8-tetramethyl-5,6,7,8-tetrahydronaphthalen-2-yl)ethynyl]pyrimidine-5-carboxylic Acid] | 37.5 (±2.12) | E max values significantly lower than ATRA | –
